Data from patent US20160067162A1, “PHOTOPROTECTIVE COMPOUNDS, COMPOSITIONS INCLUDING SAME AND USES THEREOF” (UNIVERSITE DE RENNES 1, priority 2013, published 2016).

Assays:
Type in all cases: physicochemical
[1] = SPF measurement, Protocol I (Rennes): simplified O/W emulsion, UV spectrum 200-400 nm; details: for λc p.I: critical wavelength; for λc p.I / Colipa UVA-PF p.I, at 10% / SPF p.I, at 10%: protocol I; for Colipa UVA-PF p.I, at 10%: product at 10%; for SPF p.I, at 10%: product at 10% in simplified O/W emulsion; for UVA/UVB: ratio of area under the curve 315-400 nm to 280-315 nm
Procedure: The SPF measurement is carried out according to the following protocol described in Le Dévéhat F., Malargé A., Couteau C., Coiffard L., Legouin B. “Evaluation of a new UV-filter screening method”, 4th symposium of the AFERP “Biodiversity, chimie des substances naturelles et medicaments” [“Biodiversity, chemistry of natural substances and medicaments”] and 3rd Franco-Pakistani symposium, Besançon (France), Jul. 16-17-18, 2010. A solution of each product dissolved in dimethyl sulfoxide is incorporated at 10% into a simplified emulsion of oil-in-water (O/W) type consisting of liquid paraffin, water and SDS at 10%, the whole mixture taken up in absolute ethanol. The UV spectrum of each solution is recorded between 200 nm and 400 nm in a 10 mm quartz cell on a Uvikon 931 UV-vis spectrophotometer and measured in comparison with a control 10% emulsion solution.
(§1) The SPF and UVA-PF values are, for the two protocols, calculated from the following equations: […]
(§2) where Eλ is the erythemogenic effect of the radiation at the wavelength λ; Sλ is the spectral solar irradiance at the wavelength λ and Tλ is the spectral transmittance of the product at the wavelength λ, λc is the critical wavelength which corresponds to the wavelength at which 90% of the area under the curve (AUC) is integrated between 290 and 400 nm. The UVA/UVB ratio corresponds more specifically to the ratio of the area under the curve between 315 and 400 nm to the area under the curve between 280 and 315 nm.

[2] = UV spectrum measurement in CHCl3 (λmax, molar extinction coefficient); details: for λmax exp: 10^−4 M in CHCl3; for ε (molar extinction coefficient at the λmax): 10^−4 M in CHCl3, 1 cm cuvette
Procedure: The products are diluted in CHCl3 so as to obtain a solution at 10^−4M. The UV spectra are measured using a Uvikon 931 UV-vis spectrophotometer, Serlabo Technologies, Entraigues sur la Sorgue, France. This UV spectrum makes it possible to determine the molar extinction coefficient (mol^−1 L cm^−1) at the λmax by virtue of the Beer-Lambert law: c=A/l×C;
A=value of the absorbance at the λmax; l=length of the cuvette in cm (l=1);
C=concentration of the solution=1×10^−4 mol/l. The theoretical λmax was determined for certain products by DFT calculation.

[3] = SPF measurement, Protocol II (Nantes): O/W emulsion on PMMA plate, transmission with integrating sphere; details: for λc (p.II): critical wavelength; for SPF (p.II, at 1%): product at 1% in O/W emulsion, PMMA plate, 290-400 nm; for Colipa UVA-PF (p.II, at 1%): product at 1%, 320-400 nm
Procedure: The SPF measurement is carried out according to the protocol described in Lohézic-Le Dévéhat F., Legouin B., Couteau C., Boustie J., Coiffard L. “Lichenic extracts and metabolites as UV filters” Journal of Photochemistry and Photobiology B: Biology 120 (2013) 17-28:
An emulsion having the following formulation is used: […]
The two phases are prepared separately. The hydrophilic phase is then added, with stirring, to the lipophilic phase. The products are finally incorporated at 1% into this O/W emulsion. 30 mg of the whole mixture are distributed over the entire surface area (25 cm^2) of a PMMA plate using a finger store. After spreading, 15 mg remain on the finger store. Three plates are prepared per product and nine measurements are carried out. The transmission measurements between 290 and 400 nm for the SPF and between 320 and 400 nm for the UVA-PF are carried out using a spectrophotometer equipped with an integrating sphere (UV Transmittance analyzer UV1000S, Labsphere, North Sutton, US).
as §1, §2

Molecule | λc p.I [1] [nm] | Colipa UVA-PF p.I, at 10% [1] | SPF p.I, at 10% [1] | UVA/UVB [1] | λmax exp [2] [nm] | ε (molar extinction coefficient at the λmax) [2] [L/mol/cm] | λc (p.II) [3] [nm] | SPF (p.II, at 1%) [3] | Colipa UVA-PF (p.II, at 1%) [3] | Colipa UVA-PF p.I, at 10% ([1]; listed as oxybenzone)
O=C1C=C(c2ccc(Cl)cc2)NCC1 [Compound 1, 6-(4-chlorophenyl)-2,3-dihydropyridin-4(1H)-one] | 366 | 3.97 ± 0.15 | 2.27 ± 0.06 | 4.78 ± 0.57 | 328 | 8131 |  |  |  | 
O=C1C=C(c2ccc(F)cc2)NCC1 [Compound 2, 6-(4-fluorophenyl)-2,3-dihydropyridin-4(1H)-one] | 361 | 5.85 ± 0.16 | 4.30 ± 0.12 | 3.08 ± 0.00 | 326 | 10924 | 383 | 1.81 ± 0.11 | 1.95 ± 0.12 | 
COc1ccc(C2=CC(=O)CCN2)cc1 [Compound 3, 6-(4-methoxyphenyl)-2,3-dihydropyridin-4(1H)-one] | 362 | 9.16 ± 0.10 | 4.30 ± 0.12 | 2.85 ± 0.01 | 330 | 16259 | 384 | 1.25 ± 0.04 | 1.33 ± 0.04 | 
CN(C)c1ccc(C2=CC(=O)CCN2)cc1 [Compound 4, 6-(4-(dimethylamino)phenyl)-2,3-dihydropyridin-4(1H)-one] | 361 | 42.67 ± 1.16 | 9.24 ± 0.18 | 5.19 ± 0.01 | 355 | 26286 | 387 | 1.72 ± 0.08 | 1.88 ± 0.09 | 
CC(C)(C)OC(=O)NC1=C(c2ccccc2)N(C(=O)OC(C)(C)C)CCC1=O [Compound 6, tert-butyl 5-(tert-butoxycarbonylamino)-4-oxo-6-phenyl-3,4-dihydropyridine-1(2H)-carboxylate] | 351 | 1.56 ± 0.04 | 2.04 ± 0.09 | 1.24 ± 0.0 | 322 | 11206 |  |  |  | 
CCOC(=O)/C=C/C1=C(c2ccccc2)N(C(=O)OC(C)(C)C)CCC1=O [Compound 7, (E)-tert-butyl 5-(3-ethoxy-3-oxoprop-1-enyl)-4-oxo-6-phenyl-3,4-dihydropyridine-1(2H)-carboxylate] | 375 | 2.92 ± 0.17 | 1.61 ± 0.13 | 6.36 ± 1.16 | 343 | 15426 |  |  |  | 
CCOC(=O)/C=C/C1=C(c2ccccc2)NCCC1=O [Compound 8, (E)-ethyl 3-(4-oxo-2-phenyl-1,4,5,6-tetrahydropyridin-3-yl)acrylate] | 378 | 5.38 ± 0.16 | 6.73 ± 0.27 | 2.22 ± 0.01 | 306 | 16596 |  |  |  | 
CCOC(=O)/C=C/C1=C(c2ccccc2)N[C@@H](COCc2ccccc2)CC1=O [Compound 9, (R,E)-ethyl 3-(6-(benzyloxymethyl)-4-oxo-2-phenyl-1,4,5,6-tetrahydropyridin-3-yl)acrylate] | 353 | 3.54 | 5.40 ± 0.43 | 1.84 | 308 | 31339 |  |  |  | 
COc1cc(OC)cc(C2=CC(=O)CCN2C(=O)OC(C)(C)C)c1 [Compound 10, tert-butyl 6-(3,5-dimethoxyphenyl)-4-oxo-3,4-dihydropyridine-1(2H)-carboxylate] | 334 | 1.88 ± 0.01 | 5.54 ± 0.66 | 0.49 ± 0.15 | 310 | 18622 |  |  |  | 
COc1ccc2cc(C3=CC(=O)CCN3C(=O)OC(C)(C)C)ccc2c1 [Compound 11, tert-butyl 6-(6-methoxynaphthalen-2-yl)-4-oxo-3,4-dihydropyridine-1(2H)-carboxylate] | 362 | 4.70 ± 0.42 | 5.50 ± 0.62 | 1.92 ± 0.01 | 331 | 14280 |  |  |  | 
CC(C)(C)OC(=O)N1CCC(=O)C=C1c1ccc(Oc2ccccc2)cc1 [Compound 12, tert-butyl 4-oxo-6-(4-phenoxyphenyl)-3,4-dihydropyridine-1(2H)-carboxylate] | 340 | 1.98 ± 0.05 | 5.31 ± 0.45 | 0.71 ± 0.01 | 316 | 20575 |  |  |  | 
COc1ccc2cc(C3=CC(=O)CCN3)ccc2c1 [Compound 15, 6-(6-methoxynaphthalen-2-yl)-2,3-dihydropyridin-4(1H)-one] | 368 | 7.41 ± 1.34 | 5.89 ± 0.99 | 2.65 ± 0.01 | 337 | 15578 |  |  |  | 
COc1ccccc1C1=CC(=O)CCN1 [Compound 16, 6-(2-methoxyphenyl)-2,3-dihydropyridin-4(1H)-one] | 358 | 4.96 ± 0.18 | 5.94 ± 0.34 | 2.12 | 333 | 13110 |  |  |  | 
CCCC1=C(/C=C/C(=O)OCC)C(=O)C[C@H](Cc2ccccc2)N1 [Compound 17, (S,E)-ethyl 3-(6-benzyl-4-oxo-2-propyl-1,4,5,6-tetrahydropyridin-3-yl)acrylate] | 353 | 4.88 ± 0.11 | 13.28 ± 0.66 | 1.46 ± 0.01 | 316 | 20260 |  |  |  | 
CN1C=C(NC(=O)OC(C)(C)C)C(=O)CC1 [Compound 18, tert-butyl 1-methyl-4-oxo-1,4,5,6-tetrahydropyridin-3-ylcarbamate] | 368 | 3.49 ± 0.17 | 2.67 ± 0.08 | 3.05 ± 0.04 | 355 | 8618 |  |  |  | 
CCCCC(CC)COC(=O)c1ccc(Nc2nc(Nc3ccc(C(=O)NC(C)(C)C)cc3)nc(Nc3ccc(C(=O)OCC(CC)CCCC)cc3)n2)cc1 (stereo not shown) [Diethylhexyl Butamido Triazone, reference compound] |  | 1.27 ± 0.01 | 10.10 ± 0.02 | 0.12 ± 0.01 |  |  |  |  |  | 
CC1CC(OC(=O)c2ccccc2O)CC(C)(C)C1 (stereo not shown) [Homosalate, reference compound] | 323 ± 1 | 1.08 ± 0.00 | 1.91 ± 0.04 | 0.17 ± 0.00 |  |  |  |  |  | 
COc1ccc(C(=O)c2ccccc2)c(O)c1 [Oxybenzone, reference compound] | 349 ± 1 | 2.63 ± 0.01 | 5.27 ± 0.25 | 0.98 ± 0.00 |  |  |  |  |  | 2.63
PEG-25 PABA [reference compound] | 324 ± 1 | 1.11 ± 0.01 | 2.04 ± 0.05 | 0.19 ± 0.01 |  |  |  |  |  | 
